According to ChEMBL document CHEMBL1909046, “DrugMatrix in vitro pharmacology data”:
pIC50: −log10 of the molar value. *1 amine or outer side, *2 acyl side, *3 side chain or, on linkers, in order; H or OH if unused. Where a SMILES comes first, the peptide text is derived from it. Bridges are numbered along the chain shown (N, C = ends). Roman numbers before positions name the chains, in order. [ ]: non-standard residue; d: D form. Actinocin(1to9) = Cc1c2oc3c(C)ccc(C(=O)[*:2])c3nc-2c(C(=O)[*:1])c(N)c1=O; NMeV = CN[C@H](C(=O)O)C(C)C; Sar = CNCC(=O)O

Legend:
[1] = DRUGMATRIX: Phosphodiesterase PDE4 enzyme inhibition (substrate: [3H]cAMP + cAMP); conditions: u-937; Not Active = under 50% inhibition at 10 µM
Melanocortin receptor 3 = Melanocortin receptor 3 (Homo sapiens, UniProt P41968); type: cell membranes, HEK293, Membrane; conditions: hek293; note: in other assays of this panel Not Active means under 50% inhibition at 10 µM
[2] = molecular target: Beta-3 adrenergic receptor (Homo sapiens, UniProt P13945); assay: DRUGMATRIX: Adrenergic beta3 radioligand binding (ligand: [125I] Cyanopindolol); type: cell membranes, HEK293, Membrane; conditions: hek293; Not Active = under 50% inhibition at 10 µM
[3] = DRUGMATRIX: GABAA, Flunitrazepam, Central radioligand binding (ligand: [3H] Flunitrazepam); type: cell membranes, Rattus norvegicus, Wistar, Brain, Membrane; conditions: Not Active = under 50% inhibition at 10 µM
Cathepsin G = molecular target: T1, Cathepsin G (Homo sapiens, UniProt P08311); type: tissue-based; conditions: neutrophil;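 note: inhibition of Cathepsin G enzyme activity, tested on an AMC-conjugated peptide substrate; in other assays of this panel Not Active means under 50% inhibition at 10 µM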
T1 sequence (P08311 whole entry): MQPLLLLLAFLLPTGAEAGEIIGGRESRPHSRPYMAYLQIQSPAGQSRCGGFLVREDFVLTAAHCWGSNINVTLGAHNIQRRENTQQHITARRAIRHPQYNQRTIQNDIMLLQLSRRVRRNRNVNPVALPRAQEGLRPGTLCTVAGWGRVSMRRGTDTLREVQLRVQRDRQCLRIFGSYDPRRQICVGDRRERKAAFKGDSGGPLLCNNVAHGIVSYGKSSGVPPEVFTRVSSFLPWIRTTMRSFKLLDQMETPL

[4] = DRUGMATRIX: Glutamate, NMDA, Agonism radioligand binding (ligand: [3H] CGP-39653); type: cell membranes, Rattus norvegicus, Wistar, Cerebral cortex, Membrane; conditions: Not Active = under 50% inhibition at 10 µM
[5] = molecular target: T2, Cholecystokinin receptor type A (Homo sapiens, UniProt P32238); type: cell membranes, Membrane; conditions: 1321-n1; note: in other assays of this panel Not Active means under 50% inhibition at 10 µM
T2 sequence (P32238 whole entry): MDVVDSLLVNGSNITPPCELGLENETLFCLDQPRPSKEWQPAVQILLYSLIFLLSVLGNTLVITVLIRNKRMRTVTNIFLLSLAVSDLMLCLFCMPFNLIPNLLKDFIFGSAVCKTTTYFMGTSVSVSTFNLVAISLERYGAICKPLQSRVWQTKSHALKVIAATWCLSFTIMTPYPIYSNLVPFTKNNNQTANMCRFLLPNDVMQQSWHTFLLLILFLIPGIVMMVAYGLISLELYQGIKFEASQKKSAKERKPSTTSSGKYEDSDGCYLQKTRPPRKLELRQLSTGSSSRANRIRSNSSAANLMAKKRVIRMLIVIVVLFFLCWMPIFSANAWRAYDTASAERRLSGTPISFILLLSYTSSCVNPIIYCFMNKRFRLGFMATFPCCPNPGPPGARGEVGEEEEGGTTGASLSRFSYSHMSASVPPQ

[6] = molecular target: C-C chemokine receptor type 2 (Homo sapiens, UniProt P41597); type: cell membranes, CHO-K1, Membrane; conditions: cho-k1; note: in other assays of this panel Not Active means under 50% inhibition at 10 µM
Chain of C-C chemokine receptor type 2 (P41597 whole entry): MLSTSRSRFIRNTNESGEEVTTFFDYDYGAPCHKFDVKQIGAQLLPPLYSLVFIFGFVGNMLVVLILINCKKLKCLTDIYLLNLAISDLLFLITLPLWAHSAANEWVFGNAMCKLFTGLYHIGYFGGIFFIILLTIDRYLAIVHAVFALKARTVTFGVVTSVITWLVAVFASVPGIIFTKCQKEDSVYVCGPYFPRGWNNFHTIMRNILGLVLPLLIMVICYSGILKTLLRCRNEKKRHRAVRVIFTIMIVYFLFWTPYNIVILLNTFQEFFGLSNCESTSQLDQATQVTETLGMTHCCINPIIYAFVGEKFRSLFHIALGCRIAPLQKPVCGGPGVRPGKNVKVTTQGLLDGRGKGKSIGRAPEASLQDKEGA

Chain of Beta-3 adrenergic receptor (P13945 whole entry): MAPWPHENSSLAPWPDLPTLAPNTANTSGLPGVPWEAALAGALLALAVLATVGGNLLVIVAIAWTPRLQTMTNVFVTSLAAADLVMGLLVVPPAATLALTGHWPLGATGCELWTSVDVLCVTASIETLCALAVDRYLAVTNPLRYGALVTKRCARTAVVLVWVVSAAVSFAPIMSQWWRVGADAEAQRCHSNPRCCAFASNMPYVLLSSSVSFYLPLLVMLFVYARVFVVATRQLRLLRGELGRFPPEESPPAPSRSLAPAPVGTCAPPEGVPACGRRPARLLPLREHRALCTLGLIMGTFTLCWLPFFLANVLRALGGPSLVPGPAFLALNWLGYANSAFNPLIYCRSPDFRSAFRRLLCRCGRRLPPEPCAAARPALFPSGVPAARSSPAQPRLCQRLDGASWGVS
Chain of Melanocortin receptor 3 (P41968 whole entry): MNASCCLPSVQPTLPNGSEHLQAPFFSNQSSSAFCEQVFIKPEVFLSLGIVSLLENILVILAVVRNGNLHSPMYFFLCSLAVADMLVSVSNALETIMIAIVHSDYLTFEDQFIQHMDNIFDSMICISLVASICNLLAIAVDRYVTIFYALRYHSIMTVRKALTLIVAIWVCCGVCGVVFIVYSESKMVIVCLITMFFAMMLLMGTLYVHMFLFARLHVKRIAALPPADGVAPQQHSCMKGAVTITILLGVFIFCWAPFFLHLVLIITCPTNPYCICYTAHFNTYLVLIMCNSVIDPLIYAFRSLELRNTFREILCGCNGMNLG

Molecule	IC50 [1]	Ki [1]	IC50 (Melanocortin receptor 3)	IC50 [2]	IC50 [3]	Ki [3]	IC50 (Cathepsin G)	IC50 [4]	Ki [4]	IC50 [5]	IC50 [6]	Ki (Melanocortin receptor 3)	Ki [2]	pIC50 (Cathepsin G; read-out: IC50)	Ki [5]	Ki [6]	Ki (Cathepsin G)
Cc1c(C)c2c(c(C)c1O)CC[C@@](C)(CCC[C@H](C)CCC[C@H](C)CCCC(C)C)O2 [ALPHA-TOCOPHEROL]	Not Active	Not Active	Not Active	Not Active	Not Active	Not Active	Not Active	Not Active	Not Active	Not Active	Not Active	–	–	–	–	–	–
Cc1c2oc3c(C)ccc(C(=O)N[C@@H]4C(=O)N[C@H](C(C)C)C(=O)N5CCC[C@H]5C(=O)N(C)CC(=O)N(C)[C@@H](C(C)C)C(=O)O[C@@H]4C)c3nc-2c(C(=O)N[C@@H]2C(=O)N[C@H](C(C)C)C(=O)N3CCC[C@H]3C(=O)N(C)CC(=O)N(C)[C@@H](C(C)C)C(=O)O[C@@H]2C)c(N)c1=O [DACTINOMYCIN] (I: T[dV]P[Sar][NMeV] / II: T[dV]P[Sar][NMeV]; ester I:1-I:C, II:1-II:C; linker I:N-II:N via Actinocin(1to9))	Not Active	Not Active	Not Active	Not Active	Not Active	Not Active	Not Active	Not Active	Not Active	Not Active	Not Active	–	–	–	–	–	–
CC1(C)S[C@@H]2[C@H](NC(=O)Cc3ccccc3)C(=O)N2[C@H]1C(=O)O [PENICILLIN G]	Not Active	Not Active	Not Active	Not Active	Not Active	Not Active	Not Active	Not Active	Not Active	Not Active	Not Active	–	–	–	–	–	–
C[C@H](CCC(=O)O)[C@H]1CC[C@H]2[C@@H]3[C@H](O)C[C@@H]4C[C@H](O)CC[C@]4(C)[C@H]3C[C@H](O)[C@]12C [CHOLIC ACID]	Not Active	Not Active	Not Active	Not Active	Not Active	Not Active	Not Active	Not Active	Not Active	Not Active	Not Active	–	–	–	–	–	–
CN(Cc1ccc(C(C)(C)C)cc1)Cc1cccc2ccccc12 [BUTENAFINE]	Not Active	Not Active	Not Active	Not Active	Not Active	Not Active	Not Active	Not Active	Not Active	Not Active	Not Active	–	–	–	–	–	–
N=C(N)NCCN1CCCCCCC1 [GUANETHIDINE]	Not Active	Not Active	Not Active	Not Active	Not Active	Not Active	Not Active	Not Active	Not Active	Not Active	Not Active	–	–	–	–	–	–
C[C@H]1O[C@@H](O[C@H]2[C@@H](O)C[C@H](O[C@H]3[C@@H](O)C[C@H](O[C@H]4CC[C@@]5(C)[C@H](CC[C@@H]6[C@@H]5C[C@@H](O)[C@]5(C)[C@@H](C7=CC(=O)OC7)CC[C@]65O)C4)O[C@@H]3C)O[C@@H]2C)C[C@H](O)[C@@H]1O [DIGOXIN]	Not Active	Not Active	Not Active	Not Active	Not Active	Not Active	Not Active	Not Active	Not Active	Not Active	Not Active	–	–	–	–	–	–
Nc1c(Br)cc(Br)cc1CN[C@H]1CC[C@H](O)CC1 [AMBROXOL]	Not Active	Not Active	Not Active	Not Active	Not Active	Not Active	Not Active	Not Active	Not Active	Not Active	Not Active	–	–	–	–	–	–
CNCCc1ccccn1 [BETAHISTINE]	Not Active	Not Active	Not Active	Not Active	Not Active	Not Active	Not Active	Not Active	Not Active	Not Active	Not Active	–	–	–	–	–	–
O=C(O)CCCc1ccc(N(CCCl)CCCl)cc1 [CHLORAMBUCIL]	Not Active	Not Active	Not Active	Not Active	Not Active	Not Active	Not Active	Not Active	Not Active	Not Active	Not Active	–	–	–	–	–	–
NC(=O)N1c2ccccc2CCc2ccccc21	Not Active	Not Active	Not Active	Not Active	Not Active	Not Active	Not Active	Not Active	Not Active	Not Active	Not Active	–	–	–	–	–	–
NCCCCCC(=O)O [AMINOCAPROIC ACID]	Not Active	Not Active	Not Active	Not Active	Not Active	Not Active	Not Active	Not Active	Not Active	Not Active	Not Active	–	–	–	–	–	–
C=C(C)C1(O)OC(=O)C=C1OC (stereo not given) [PENICILLIC ACID]	Not Active	Not Active	Not Active	Not Active	Not Active	Not Active	Not Active	Not Active	Not Active	Not Active	Not Active	–	–	–	–	–	–
CC1(C)O[C@@H]2C[C@H]3[C@@H]4CCC5=CC(=O)CC[C@]5(C)[C@@]4(F)[C@@H](O)C[C@]3(C)[C@]2(C(=O)CCl)O1 [HALCINONIDE]	Not Active	Not Active	Not Active	Not Active	Not Active	Not Active	Not Active	Not Active	Not Active	Not Active	Not Active	–	–	–	–	–	–
LIPOPOLYSACCHARIDE E. COLI O55:B5	Not Active	Not Active	Not Active	Not Active	Not Active	Not Active	–	Not Active	Not Active	Not Active	Not Active	Not Active	Not Active	6.07	Not Active	Not Active	–
COc1cc2c3cc1Oc1cc(ccc1O)C[C@@H]1c4c(cc(OC)c(O)c4Oc4ccc(cc4)C[C@@H]3N(C)CC2)CC[N+]1(C)C.[Cl-]	Not Active	Not Active	Not Active	Not Active	Not Active	Not Active	Not Active	Not Active	Not Active	Not Active	Not Active	–	–	–	–	–	–
Cc1cc(C(C#N)c2ccc(Cl)cc2)c(Cl)cc1NC(=O)c1cc(I)cc(I)c1O (stereo not given) [CLOSANTEL]	Not Active	Not Active	Not Active	Not Active	Not Active	Not Active	Not Active	Not Active	Not Active	Not Active	Not Active	–	–	–	–	–	–
CC(NC(C)(C)C)C(=O)c1cccc(Cl)c1 (stereo not given) [BUPROPION]	Not Active	Not Active	Not Active	Not Active	Not Active	Not Active	Not Active	Not Active	Not Active	Not Active	Not Active	–	–	–	–	–	–
Cc1onc(-c2ccccc2Cl)c1C(=O)N[C@@H]1C(=O)N2[C@@H]1SC(C)(C)[C@@H]2C(=O)O [CLOXACILLIN]	Not Active	Not Active	Not Active	Not Active	Not Active	Not Active	Not Active	Not Active	Not Active	Not Active	Not Active	–	–	–	–	–	–
CADMIUM ACETATE	Not Active	Not Active	Not Active	Not Active	Not Active	Not Active	Not Active	Not Active	Not Active	Not Active	Not Active	Not Active	Not Active	–	Not Active	Not Active	Not Active
CNCCCN1c2ccccc2CCc2ccccc21 [DESIPRAMINE]	Not Active	Not Active	Not Active	Not Active	Not Active	Not Active	Not Active	Not Active	Not Active	Not Active	Not Active	–	–	–	–	–	–
